Key:
[1] = test system: Sprague-Dawley rats; experiment: Physical dependence test: naloxone-precipitated withdrawal response after 7 days of increasing doses; format: in vivo; settings: morphine hydrochloride s.c. twice a day, 5 mg/kg to 60 mg/kg, naloxone 5 mg/kg on day 8, within 30 min
Description: The morphine control group was injected subcutaneously with morphine hydrochloride twice a day. […] The Agriolima agrestis extract group was administered twice a day by oral gavage with increasing dose. The dosage was increased daily from […] to 3.0 g/kg and continuously administered until the 7th day. The negative control group was given the same volume of vegetable oil daily, and the administration time and frequency were the same as those in the Agriolima agrestis extract group. […]

[2] = test system: sleep time of mice with pentobarbital sodium; experiment: Sleep time with pentobarbital sodium; format: in vivo, KM mice; settings: estazolam 2 mg/kg; pentobarbital sodium 50 mg/kg 45 min after administration
Description: 40 KM mice (female:male 1:1) were fastened for 12 hrs, but allowed to free access to water. The mice were randomly divided into 4 groups, including a blank control group, a group with low-dose Agriolima agrestis extract (0.4 g/kg) prepared in the present invention, a group with high-dose Agriolima agrestis extract (0.8 g/kg) prepared in the present invention, and a positive control group (estazolam 2 mg/kg). Each group of mice was administered at the above dosage, and the blank control group was administered with the same volume of normal saline. After 45 minutes, each mouse was given 50 mg/kg of pentobarbital sodium, and then the sleep time of each group of mice was recorded (where the time at which the righting reflex disappeared after the administration was taken as the sleep onset time of the mice, and the duration from the time at which the righting reflex disappeared to the time at which the righting reflex returned was taken as the sleep time).

[3] = test system: morphine-induced excitability in mice; experiment: Morphine-induced excitability (spontaneous activity recorder); format: in vivo, KM mice
Description: 40 KM mice (female:male 1:1) were fastened for 12 hrs, but allowed to free access to water. The mice were randomly divided into 4 groups, including a blank control group, a group with low-dose Agriolima agrestis extract (0.4 g/kg) prepared in the present invention, a group with high-dose Agriolima agrestis extract (0.8 g/kg) prepared in the present invention, and a positive control group (estazolam 2 mg/kg). Each group of mice was placed in a YLS-1A multifunctional small animal spontaneous activity recorder. After 5 minutes of accommodation, the number of spontaneous activities of the mice before administration was measured, and the recording time was 10 min. Each group of mice was administered at the above dosage, and the blank control group was administered by oral gavage with the same volume of normal saline. […] After 15 minutes, the mice were placed in the recorder to observe and record the number of activities of the mice within 10 min.

[4] = test system: amphetamine-induced excitability in mice; experiment: Amphetamine-induced excitability (spontaneous activity recorder); format: in vivo, KM mice
Description: 40 KM mice (female:male 1:1) were fastened for 12 hrs, but allowed to free access to water. The mice were randomly divided into 4 groups, including a blank control group, a group with low-dose Agriolima agrestis extract (0.4 g/kg) prepared in the present invention, a group with high-dose Agriolima agrestis extract (0.8 g/kg) prepared in the present invention, and a positive control group (estazolam 2 mg/kg). Each group of mice was placed in a YLS-1A multifunctional small animal spontaneous activity recorder. After 5 minutes of accommodation, the number of spontaneous activities of the mice before administration was measured, and the recording time was 10 min.
Each group of mice was administered by oral gavage at the above dosage, and the blank control group was administered with the same volume of normal saline. Each mouse was intraperitoneally injected with amphetamine (8 mg/kg) 30 min after administration. After 15 minutes, the mice were placed in the recorder to observe and record the number of activities of the mice within 10 min.

[5] = Difference in body weight of mice before and after naloxone precipitation; format: in vivo, KM mice; settings: morphine-dependent mice, methadone 20 mg/kg
Description: (§1) 50 KM mice (female:male 1:1) were randomized into 5 groups. Group (1) was a blank control group, and the mice were subcutaneously injected with normal saline. […] Each group was given a different treatment. Group (1), that is, the blank control group, was given the same volume of normal saline. […] Group (3), that is, the positive control group, was given 20 mg/kg of methadone. Groups (4) and (5), that is, groups with low and high doses of Agriolima agrestis extract prepared in the present invention, were given Agriolima agrestis extract at a dosage of 0.4 g/kg and 0.8 g/kg respectively. Each group of mice was administered for consecutive 3 days. The mice were allowed to free access to water and food. 1 hrs after administration on the first and third days of treatment, naloxone (8 mg/kg) was given for precipitation respectively. The jump reaction of the mice in each group within 30 minutes and the changes of body weight before and after precipitation were observed.

[6] = test system: morphine-dependent mice; experiment: Jumps of morphine-dependent mice upon naloxone-precipitated withdrawal; format: in vivo, KM mice; settings: methadone 20 mg/kg, naloxone 8 mg/kg 1 hr after administration
Description: as §1

[7] = Difference in body weight of rats before and after naloxone precipitation; format: in vivo, Sprague-Dawley rats; settings: morphine-dependent rats, methadone 20 mg/kg, 1 h after precipitation
Description: (§2) 50 Sprague-Dawley rats (female:male 1:1) were randomized into 5 groups. Group (1) was a blank control group, and the rats were subcutaneously injected with normal saline. […] Each group was given a different treatment. Group (1), that is, the blank control group, was given the same volume of normal saline. […] Group (3), that is, the positive control group, was given 20 mg/kg of methadone. Groups (4) and (5), that is, groups with low and high doses of Agriolima agrestis extract prepared in the present invention, were given Agriolima agrestis extract at a dosage of 0.3 g/kg and 0.6 g/kg respectively. Each group of rats was administered for consecutive 3 days. The rats were allowed to free access to water and food. 45 minutes after administration on the first and third days of treatment, naloxone (5 mg/kg) was given for precipitation respectively. The withdrawal response of the rats within 30 minutes and the changes of body weight before and after precipitation (1 h) were observed.

[8] = test system: morphine-dependent rats; experiment: Naloxone-precipitated withdrawal symptom scores in morphine-dependent rats; format: in vivo, Sprague-Dawley rats; settings: methadone 20 mg/kg, naloxone 5 mg/kg 45 min after administration, response within 30 min
Description: as §2

[9] = baseline of estazolam 2 mg/kg group, recording time 10 min

## CN1CC[C@]23c4c5ccc(O)c4O[C@H]2[C@@H](O)C=C[C@H]3[C@H]1C5.Cl [Morphine, morphine hydrochloride]
[1]
  Withdrawal response score: 76.9 ± 14.53

## Clc1ccc2c(c1)C(c1ccccc1)=NCc1nncn1-2 [estazolam]
[2]
  Sleep time of mice: 66.22 ± 13.77 min
[3]; [9]
  Activities before administration: 171.2 ± 38.94 counts/min
[3]; estazolam 2 mg/kg, morphine 10 mg/kg i.p. 30 min after administration, recorded 15 min later within 10 min
  Activities after administration: 67.9 ± 40.31 counts/min
[4]; [9]
  Activities before administration: 183.7 ± 32.99 counts/min
[4]; estazolam 2 mg/kg oral gavage, amphetamine 8 mg/kg i.p. 30 min after administration, recorded 15 min later within 10 min
  Activities after administration: 83.0 ± 40.14 counts/min

## CCC(=O)C(CC(C)N(C)C)(c1ccccc1)c1ccccc1 (centres unmarked) [methadone]
[5]; day 1
  Difference in body weight (before precipitation − after precipitation), Day 1: 0.22 ± 0.19 g
[5]; day 3
  Difference in body weight (before precipitation − after precipitation), Day 3: 0.46 ± 0.23 g
[6]; day 1
  Jumps upon precipitated withdrawal, Day 1: 25.1 ± 6.9 jumps/30 min
[6]; day 3
  Jumps upon precipitated withdrawal, Day 3: 22.9 ± 6.81 jumps/30 min
[7]; day 1
  Difference in body weight (before precipitation − after precipitation), Day 1: 15.6 ± 6.39 g
[7]; day 3
  Difference in body weight (before precipitation − after precipitation), Day 3: 2.6 ± 2.75 g
[8]; day 1 of treatment
  Naloxone-precipitated withdrawal symptom score, Day 1: 49.35 ± 14.41
[8]; day 3 of treatment
  Naloxone-precipitated withdrawal symptom score, Day 3: 35.6 ± 18.73
